ChEMBL document CHEMBL1201862, “PubChem BioAssay data set” (2004)
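All cell lines were grown in 96-well plates and treated with compound for 48 hours. GI50: concentration for 50% inhibition of growth.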 Calls of active or inactive are those of the source. No stated cut-off is given here; in the data, active = GI50 up to about 1.1 µM and inactive = higher.

Tests used:
Experiment in all cases: NCI anticancer screen, dose series, 48 h
786-0 = test system: 786-0
ACHN = test system: ACHN
CCRF-CEM = test system: CCRF-CEM
COLO 205 = test system: COLO 205
DU-145 = test system: DU-145
HL-60 = test system: HL-60
HOP-62 = test system: HOP-62
LOX IMVI = test system: LOX IMVI
M14 = test system: M14
NCI-H522 = test system: NCI-H522
NCI/ADR-RES = test system: NCI/ADR-RES
SK-MEL-2 = test system: SK-MEL-2
SK-OV-3 = test system: SK-OV-3
SR = test system: SR
TK-10 = test system: TK-10
U-251 = test system: U-251
UACC-257 = test system: UACC-257
UACC-62 = test system: UACC-62
UO-31 = test system: UO-31
MDA-MB-231 = test system: MDA-MB-231

SMILES	GI50 (786-0)	GI50 (ACHN)	GI50 (CCRF-CEM)	GI50 (COLO 205)	GI50 (DU-145)	GI50 (HL-60)	GI50 (HOP-62)	GI50 (LOX IMVI)	GI50 (M14)	GI50 (NCI-H522)	GI50 (NCI/ADR-RES)	GI50 (SK-MEL-2)	GI50 (SK-OV-3)	GI50 (SR)	GI50 (TK-10)	GI50 (U-251)	GI50 (UACC-257)	GI50 (UACC-62)	GI50 (UO-31)	GI50 (MDA-MB-231)
CC1(C)/C(=N\Nc2ccc([N+](=O)[O-])cc2[N+](=O)[O-])C2CCC1C2 (stereo unspecified)	81.8 µM (inactive)	54 µM (inactive)	> 10 µM (inactive)	> 100 µM (inactive)	> 100 µM (inactive)	> 100 µM (inactive)	74.5 µM (inactive)	> 100 µM (inactive)	> 100 µM (inactive)	> 100 µM (inactive)	> 100 µM (inactive)	> 100 µM (inactive)	27.7 µM (inactive)	> 100 µM (inactive)	> 100 µM (inactive)	> 100 µM (inactive)	19.3 µM (inactive)	> 100 µM (inactive)	> 100 µM (inactive)	
Cc1cc(Cl)ccc1NC(=O)CC/C(CC(=O)C(C)C)=N\NC(=O)C[n+]1ccccc1	> 100 µM (inactive)	> 100 µM (inactive)	> 100 µM (inactive)	> 100 µM (inactive)		> 100 µM (inactive)	> 100 µM (inactive)	> 100 µM (inactive)	> 100 µM (inactive)	> 100 µM (inactive)		> 100 µM (inactive)	> 100 µM (inactive)	> 100 µM (inactive)	> 100 µM (inactive)	> 100 µM (inactive)	> 100 µM (inactive)	> 100 µM (inactive)	> 100 µM (inactive)	
COc1ccc(/C=C/C(=O)c2sc(-n3nc(-c4ccccc4)cc3-c3ccccc3)nc2C)cc1	> 10 µM (inactive)	> 10 µM (inactive)	> 10 µM (inactive)	> 10 µM (inactive)		> 10 µM (inactive)	> 10 µM (inactive)	> 10 µM (inactive)	> 10 µM (inactive)	63.1 µM (inactive)		> 10 µM (inactive)	> 10 µM (inactive)	> 10 µM (inactive)	> 10 µM (inactive)	62.2 µM (inactive)	79.1 µM (inactive)	> 10 µM (inactive)	31.6 µM (inactive)	
O=c1[nH]nc(-c2ccccc2)c2[nH]c3c4ccccc4ccc3c12	2.1 µM (inactive)	1.69 µM (inactive)	1.56 µM (inactive)	0.74 µM (active)		0.548 µM (active)	2.77 µM (inactive)		2.66 µM (inactive)	0.753 µM (active)	0.379 µM (active)	7.62 µM (inactive)	2.61 µM (inactive)	0.251 µM (active)	2.17 µM (inactive)	0.885 µM (active)	5.82 µM (inactive)	1.2 µM (inactive)		
CC1CC/C(=C\c2ccc(Cl)cc2)C2OC(N)=C(C#N)C(c3ccc(Cl)cc3)=C12 (stereo unspecified)	13.6 µM (inactive)	16.4 µM (inactive)	5.06 µM (inactive)	12.5 µM (inactive)	17 µM (inactive)	2.88 µM (inactive)	2.18 µM (inactive)	13 µM (inactive)	16.2 µM (inactive)		11.6 µM (inactive)	10.8 µM (inactive)	18.2 µM (inactive)		25.7 µM (inactive)	15.2 µM (inactive)	31.6 µM (inactive)	16.2 µM (inactive)	9.31 µM (inactive)	10.4 µM (inactive)
CCOC(=O)CSc1[nH]c(NC(=S)Nc2ccccc2)c(C(N)=O)c1C(N)=O	> 10 µM (inactive)		4.95 µM (inactive)	> 10 µM (inactive)	> 10 µM (inactive)	2.32 µM (inactive)	> 10 µM (inactive)	> 10 µM (inactive)	> 10 µM (inactive)				> 10 µM (inactive)	3.67 µM (inactive)	> 10 µM (inactive)		> 10 µM (inactive)	> 10 µM (inactive)		> 10 µM (inactive)
COc1cccc(/C=C2\N=C(Cl)OC2=O)c1O	> 94.6 µM (inactive)	> 100 µM (inactive)	> 55.3 µM (inactive)	> 100 µM (inactive)	> 100 µM (inactive)	> 100 µM (inactive)	> 100 µM (inactive)	> 100 µM (inactive)	> 100 µM (inactive)	> 100 µM (inactive)		> 100 µM (inactive)	> 38.7 µM (inactive)	> 88.9 µM (inactive)	> 100 µM (inactive)	> 85.9 µM (inactive)	> 100 µM (inactive)	> 100 µM (inactive)	> 100 µM (inactive)	
O=C(NCc1cccnc1)C1COc2cc(-c3cc(=O)c4ccccc4o3)ccc2O1 (stereo unspecified)	7.19 µM (inactive)	22.5 µM (inactive)	> 100 µM (inactive)	> 100 µM (inactive)		> 46.5 µM (inactive)	10.1 µM (inactive)	3.38 µM (inactive)	5.27 µM (inactive)	10.7 µM (inactive)		3.4 µM (inactive)	> 100 µM (inactive)	5.46 µM (inactive)	> 57.9 µM (inactive)	5.93 µM (inactive)	4.94 µM (inactive)	30.4 µM (inactive)	> 43.9 µM (inactive)	
